This is an account of results in patent US6579708B1, “Human uridine kinase” (SmithKline Beecham Corporation, priority 2000, dated 2003).

The subject of series [1] is uridine kinase. Particulars: cited from earlier work.
Series [2] has as its system uridine kinase. Particulars: cited from earlier work. This is another data set of the same source.
Series [3] is described as follows: Characterization of recombinant His-tagged human uridine kinase expressed in E.coli. The series is classed as biochemical. The text has this:
The novel human UDK gene has been cloned into an expression vector pET 16b (Novagen) with a His tag at its NH2-terminus. The gene was expressed in E.coli and has been purified to >95% purity by Ni-NTA affinity chromatography.

Read-outs that look alike come from different tables or passages of the source.

What is called Km is the substrate concentration at which the rate is half of its maximum. On to `O=c1ccn([C@@H]2O[C@H](CO)[C@@H](O)[C@H]2O)c(=O)[nH]1` [uridine], for which the Km in the series on uridine kinase [1] (normal ovary) is 11500 µM; in the series on uridine kinase [1] (ovarian carcinoma) it was 500 µM; in the series with uridine kinase [2] (normal rat liver), 5000 µM; with uridine kinase [2] (rapidly growing hepatoma 3924A), 800 µM.

B1: Human Uridine Kinase: novel human UDK gene product expressed in E.coli from pET 16b, purified by Ni-NTA affinity chromatography (protein)
chain: MASAGGEDCESPAPEADRPHQRPFLIGVSGGTASGKSTVCEKIMELLGQNEVEQRQRKVVILSQDRFYKVLTAEQKAKALKGQYNFDHPDAFDNDLMHRTLKNIVEGKTVEVPTYDFVTHSRLPETTVVYPADVVLFEGILVFYSQEIRDMFHLRLFVDTDSDVRLSRRVLRDVRRGRDLEQILTQYTTFVKPAFEEFCLPTKKYADVIIPRGVDNMVAINLIVQHIQDILNGDICKWHRGGSNGRSYKRTFSEPGDHPG
modifications: His tag from pET16b; Human
Regarding B1, in series [3], the “Optimum pH” value is recorded as 9.0. The “Specific Activity” value in series [3] (purified enzyme, His tag at NH2-terminus) came out at 678 nmol/min/mg protein. Besides, in series [3] (with the His tag), the enzymatic activity result is “good enzymatic activity”.
